Measurements taken from patent US12466839B2, “Allosteric AKT inhibitors for use in the treatment of Hereditary Hemorrhagic Telangiectasia” (VADERIS THERAPEUTICS AG, priority 2020, dated 2025).

Columns and labels:
Kv4.3 = Kv4.3 (Homo sapiens, UniProt Q9UK17); assay: Cardiac ion channel profile; assay type: cell-based
Motilin = biological target: T1, Motilin (Homo sapiens, UniProt O43193); assay: Millipore Drug Discovery Safety and Liability Panel; assay type: cell-based
T1 construct: purchased Millipore
T1 sequence (O43193 whole entry): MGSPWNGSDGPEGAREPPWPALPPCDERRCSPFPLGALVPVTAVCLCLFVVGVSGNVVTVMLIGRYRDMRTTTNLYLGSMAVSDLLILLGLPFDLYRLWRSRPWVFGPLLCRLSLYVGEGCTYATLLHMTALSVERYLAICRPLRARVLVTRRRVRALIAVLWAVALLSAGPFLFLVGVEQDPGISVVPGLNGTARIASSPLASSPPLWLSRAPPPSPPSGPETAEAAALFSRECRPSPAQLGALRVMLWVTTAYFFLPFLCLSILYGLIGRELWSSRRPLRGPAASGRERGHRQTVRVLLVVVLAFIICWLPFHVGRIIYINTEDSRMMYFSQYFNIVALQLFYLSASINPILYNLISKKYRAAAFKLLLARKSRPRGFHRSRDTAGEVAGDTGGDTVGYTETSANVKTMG

CCK2 = biological target: T2, CCK2 (Homo sapiens, UniProt P32239); assay: as above; assay type: cell-based
T2 construct: purchased Millipore
T2 sequence (P32239 whole entry): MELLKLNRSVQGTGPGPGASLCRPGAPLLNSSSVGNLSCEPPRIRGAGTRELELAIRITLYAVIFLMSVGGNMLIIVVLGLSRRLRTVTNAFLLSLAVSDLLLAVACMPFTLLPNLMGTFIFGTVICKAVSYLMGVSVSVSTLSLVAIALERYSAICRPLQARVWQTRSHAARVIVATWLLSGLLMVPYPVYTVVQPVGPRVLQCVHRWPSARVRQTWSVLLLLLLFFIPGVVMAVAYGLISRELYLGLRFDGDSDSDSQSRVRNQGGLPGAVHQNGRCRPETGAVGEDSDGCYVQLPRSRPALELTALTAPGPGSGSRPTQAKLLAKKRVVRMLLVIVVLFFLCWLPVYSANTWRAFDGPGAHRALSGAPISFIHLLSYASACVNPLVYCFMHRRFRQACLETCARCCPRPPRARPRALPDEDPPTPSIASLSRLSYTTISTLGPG

5-HT2B = biological target: T3, 5-HT2B (Homo sapiens, UniProt P41595); assay: as above; assay type: cell-based
T3 construct: purchased Millipore
T3 sequence (P41595 whole entry, species assumed): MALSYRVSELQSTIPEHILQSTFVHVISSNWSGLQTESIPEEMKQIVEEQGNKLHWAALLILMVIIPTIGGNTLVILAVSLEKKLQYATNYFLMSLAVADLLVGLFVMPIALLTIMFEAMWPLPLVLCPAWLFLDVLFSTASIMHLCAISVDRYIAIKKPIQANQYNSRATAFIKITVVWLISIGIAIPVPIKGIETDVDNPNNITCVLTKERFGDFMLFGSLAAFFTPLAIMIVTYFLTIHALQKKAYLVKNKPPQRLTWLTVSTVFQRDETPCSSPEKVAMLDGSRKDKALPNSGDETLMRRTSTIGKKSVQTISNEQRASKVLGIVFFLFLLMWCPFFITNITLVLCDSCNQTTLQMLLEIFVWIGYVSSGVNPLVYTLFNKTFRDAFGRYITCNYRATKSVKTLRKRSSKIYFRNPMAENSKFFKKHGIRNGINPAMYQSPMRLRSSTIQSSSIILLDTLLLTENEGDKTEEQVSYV

ETB = biological target: T4, ETB (Homo sapiens, UniProt P24530); assay: as above; assay type: cell-based
T4 construct: purchased Millipore
T4 sequence (P24530 27-442, species assumed): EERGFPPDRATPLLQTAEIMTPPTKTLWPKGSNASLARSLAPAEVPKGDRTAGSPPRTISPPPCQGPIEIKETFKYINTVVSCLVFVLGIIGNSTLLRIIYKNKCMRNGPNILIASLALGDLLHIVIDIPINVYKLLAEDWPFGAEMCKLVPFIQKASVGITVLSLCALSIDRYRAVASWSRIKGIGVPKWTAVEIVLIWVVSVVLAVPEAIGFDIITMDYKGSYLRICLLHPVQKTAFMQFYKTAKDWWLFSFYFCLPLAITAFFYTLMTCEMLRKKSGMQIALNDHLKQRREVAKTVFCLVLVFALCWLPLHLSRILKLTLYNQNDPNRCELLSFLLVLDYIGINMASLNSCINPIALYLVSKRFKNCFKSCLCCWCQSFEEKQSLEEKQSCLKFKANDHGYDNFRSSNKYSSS

LPA1 = biological target: T5, LPA1 (Homo sapiens, UniProt Q92633); assay: as above; assay type: cell-based
T5 construct: purchased Millipore
T5 sequence (Q92633 whole entry, species assumed): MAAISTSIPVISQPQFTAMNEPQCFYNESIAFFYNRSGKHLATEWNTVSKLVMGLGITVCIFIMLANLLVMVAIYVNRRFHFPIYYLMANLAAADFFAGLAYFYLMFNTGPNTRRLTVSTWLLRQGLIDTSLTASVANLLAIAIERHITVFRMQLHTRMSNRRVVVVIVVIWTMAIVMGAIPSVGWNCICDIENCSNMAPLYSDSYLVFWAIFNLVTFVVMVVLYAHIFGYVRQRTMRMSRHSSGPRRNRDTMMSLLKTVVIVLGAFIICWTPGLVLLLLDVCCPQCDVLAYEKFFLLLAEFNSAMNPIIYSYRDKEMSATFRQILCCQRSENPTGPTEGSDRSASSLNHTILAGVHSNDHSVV

C5aR = biological target: T6, C5aR (Homo sapiens, UniProt P21730); assay: as above; assay type: cell-based
T6 construct: purchased Millipore
T6 sequence (P21730 whole entry): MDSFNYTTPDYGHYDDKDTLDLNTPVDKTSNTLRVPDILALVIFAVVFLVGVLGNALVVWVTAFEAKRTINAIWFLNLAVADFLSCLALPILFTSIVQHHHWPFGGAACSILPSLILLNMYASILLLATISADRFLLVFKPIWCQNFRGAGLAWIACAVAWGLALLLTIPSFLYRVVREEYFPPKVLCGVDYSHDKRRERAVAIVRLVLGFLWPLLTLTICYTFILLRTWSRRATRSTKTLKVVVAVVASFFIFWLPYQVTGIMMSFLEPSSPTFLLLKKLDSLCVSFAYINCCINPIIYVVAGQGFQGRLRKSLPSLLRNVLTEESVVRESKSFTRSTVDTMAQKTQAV

PRP = biological target: T7, PRP (Homo sapiens, UniProt P49683); assay: as above; assay type: cell-based
T7 construct: Millipore
T7 sequence (P49683 whole entry): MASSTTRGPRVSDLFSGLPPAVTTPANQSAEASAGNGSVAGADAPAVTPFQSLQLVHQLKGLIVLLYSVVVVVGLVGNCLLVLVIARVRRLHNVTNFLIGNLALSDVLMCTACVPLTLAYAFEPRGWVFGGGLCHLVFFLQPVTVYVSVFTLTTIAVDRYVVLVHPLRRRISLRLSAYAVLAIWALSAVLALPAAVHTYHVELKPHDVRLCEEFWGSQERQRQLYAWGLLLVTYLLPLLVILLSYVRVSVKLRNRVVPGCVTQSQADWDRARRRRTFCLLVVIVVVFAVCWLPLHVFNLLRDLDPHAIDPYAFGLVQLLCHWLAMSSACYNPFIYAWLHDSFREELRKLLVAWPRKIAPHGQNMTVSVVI

p42/p44 (MAPK pathway) = assay: p42/p44 phosphorylation in primary lung endothelial cells (selectivity control); assay type: cell-based, mouse; details: control for selectivity
Experimental: ECs were seeded in six-well plates and allowed to grow to 90% confluence. Cells were then washed with PBS and serum starved for six hours. […] Cells were washed with cold PBS and then lysed in RIPA Buffer (50 mM Tris-HCl pH 7.4, 150 mM NaCl, 1 mM Ethylene diamine tetra-acetic acid (EDTA), 1% Triton X-100, 0.1% Sodium Dodecyl Sulfate (SDS), 0.5% deoxycholate) containing protease and phosphatase inhibitors (PPC1010, Sigma-Aldrich).
Samples were boiled for 10 min and proteins were separated on 10% acrylamide gel and transferred onto nitrocellulose membrane before blocking with 5% BSA or 5% powdered milk/Tris-buffered saline/Tween and incubated with the following primary antibodies: rabbit anti-Phospho-Akt1 (Ser473) (44-621G, Invitrogen), rabbit anti-Akt1 (2938S, Cell Signaling), rabbit anti-PhosphoSmad1/5 (Ser463/465) (9516S, Cell Signaling), rabbit anti-Smad1 (6944S, Cell Signaling), mouse anti-Phospho-p44/42 MAPK (Thr202/Tyr204) (E10) (9106S, Cell signaling), rabbit p44/42 MAPK (Erk1/2) (9102S, Cell Signaling), goat anti-Endoglin (AF1097, R&D systems) and mouse anti-β-actin (A5441, Sigma-Aldrich). Detection was achieved using HRP anti-rabbit IgG or HRP anti-mouse IgG (W4011 or W4021 respectively, Promega) or HRP anti-goat IgG (HAF017, R&D systems) followed by scanning on BIO-RAD ChemiDoc imager. […]

VPAC2 = biological target: T8, VPAC2 (Homo sapiens, UniProt P41587); assay: Millipore Drug Discovery Safety and Liability Panel; assay type: cell-based
T8 construct: Millipore
T8 sequence (P41587 24-438): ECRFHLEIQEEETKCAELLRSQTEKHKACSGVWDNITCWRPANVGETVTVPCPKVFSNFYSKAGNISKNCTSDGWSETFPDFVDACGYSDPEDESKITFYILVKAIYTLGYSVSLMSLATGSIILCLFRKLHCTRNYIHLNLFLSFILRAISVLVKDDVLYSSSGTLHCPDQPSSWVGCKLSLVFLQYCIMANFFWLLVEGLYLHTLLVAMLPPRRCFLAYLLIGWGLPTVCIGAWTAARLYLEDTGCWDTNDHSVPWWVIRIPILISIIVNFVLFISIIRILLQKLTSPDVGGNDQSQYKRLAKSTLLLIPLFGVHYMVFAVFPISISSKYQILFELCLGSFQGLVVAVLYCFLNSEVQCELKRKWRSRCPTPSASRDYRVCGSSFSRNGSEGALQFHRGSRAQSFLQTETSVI

p38α = p38α (Homo sapiens, UniProt Q16539); assay: Panel of 450 kinases and 10-point titration curve; assay type: biochemical
p38α, sequence (Q16539 whole entry): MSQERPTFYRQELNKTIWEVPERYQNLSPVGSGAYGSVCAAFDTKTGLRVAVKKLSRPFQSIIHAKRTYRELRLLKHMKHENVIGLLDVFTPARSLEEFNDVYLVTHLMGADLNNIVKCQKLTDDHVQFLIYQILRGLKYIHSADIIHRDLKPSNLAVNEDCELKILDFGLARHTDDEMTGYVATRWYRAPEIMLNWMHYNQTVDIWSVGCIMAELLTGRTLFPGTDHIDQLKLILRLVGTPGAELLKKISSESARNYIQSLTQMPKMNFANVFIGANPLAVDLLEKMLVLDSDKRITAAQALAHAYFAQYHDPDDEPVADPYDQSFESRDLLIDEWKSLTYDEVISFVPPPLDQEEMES

AKT3 = AKT3 (Homo sapiens, UniProt Q9Y243); assay: Biochemical kinase assay
BLT1 = biological target: T9, BLT1 (Homo sapiens, UniProt Q15722); assay: Millipore Drug Discovery Safety and Liability Panel; assay type: cell-based
T9 construct: purchased Millipore
T9 sequence (Q15722 whole entry): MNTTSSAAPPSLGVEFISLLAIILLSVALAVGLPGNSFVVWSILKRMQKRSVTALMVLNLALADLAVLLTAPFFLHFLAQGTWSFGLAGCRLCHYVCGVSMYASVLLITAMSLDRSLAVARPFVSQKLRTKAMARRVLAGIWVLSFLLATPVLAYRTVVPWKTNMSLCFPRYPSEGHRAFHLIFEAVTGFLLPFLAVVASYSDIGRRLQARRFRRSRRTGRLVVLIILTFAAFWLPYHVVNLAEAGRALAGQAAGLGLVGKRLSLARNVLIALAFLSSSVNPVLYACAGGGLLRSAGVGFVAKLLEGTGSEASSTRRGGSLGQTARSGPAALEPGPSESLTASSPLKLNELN

PDK1 = PDK1 (Homo sapiens, UniProt O15530); assay: Panel of 450 kinases and 10-point titration curve; assay type: biochemical
PDK1, sequence (O15530 whole entry): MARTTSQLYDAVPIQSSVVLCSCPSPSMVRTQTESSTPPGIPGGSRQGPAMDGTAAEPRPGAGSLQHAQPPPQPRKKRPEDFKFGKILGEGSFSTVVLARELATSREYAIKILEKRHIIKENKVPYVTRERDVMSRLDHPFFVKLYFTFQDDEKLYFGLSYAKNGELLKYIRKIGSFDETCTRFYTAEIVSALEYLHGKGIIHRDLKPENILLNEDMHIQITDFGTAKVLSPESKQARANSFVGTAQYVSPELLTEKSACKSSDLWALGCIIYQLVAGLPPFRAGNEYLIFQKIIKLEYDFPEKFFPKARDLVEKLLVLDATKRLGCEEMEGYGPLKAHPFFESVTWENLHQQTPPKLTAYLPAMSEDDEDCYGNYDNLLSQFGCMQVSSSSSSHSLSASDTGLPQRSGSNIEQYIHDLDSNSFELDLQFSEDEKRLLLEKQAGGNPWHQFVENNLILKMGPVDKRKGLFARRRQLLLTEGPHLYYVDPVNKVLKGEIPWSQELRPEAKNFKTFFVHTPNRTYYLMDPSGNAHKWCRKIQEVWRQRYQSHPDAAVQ

KCNQ1 = KCNQ1 (Homo sapiens, UniProt P51787); assay: Cardiac ion channel profile; assay type: cell-based
GnRH = biological target: T10, GnRH (Homo sapiens, UniProt P30968); assay: Millipore Drug Discovery Safety and Liability Panel; assay type: cell-based
T10 construct: purchased Millipore
T10 sequence (P30968 whole entry): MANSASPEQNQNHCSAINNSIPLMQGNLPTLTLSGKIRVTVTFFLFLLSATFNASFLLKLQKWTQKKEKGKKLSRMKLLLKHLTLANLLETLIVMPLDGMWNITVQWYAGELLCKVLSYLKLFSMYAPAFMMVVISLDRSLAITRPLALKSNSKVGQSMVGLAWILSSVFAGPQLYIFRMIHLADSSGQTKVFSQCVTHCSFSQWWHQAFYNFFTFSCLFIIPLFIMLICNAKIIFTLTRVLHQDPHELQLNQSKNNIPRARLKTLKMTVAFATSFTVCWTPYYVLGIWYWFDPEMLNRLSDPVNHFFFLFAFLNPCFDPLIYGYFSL

[1] = read-out: AGONIST mean % increase in activity
[2] = read-out: ANTAGONIST mean % inhibition

Q: Which inhibition at 10 µM (Kv4.3) does the source give for `CCN1C(=O)COc2nc(-c3ccc(C4(N)CC(O)C4)cc3)c(-c3ccccc3)cc21.O=C(O)C(O)C(O)C(=O)O` [VAD044, 6-(4-(1-amino-3-hydroxycyclobutyl)phenyl)-1-ethyl-7-phenyl-1H-pyrido[2,3-b][1,4]oxazin-2(3H)-one L-tartrate] here?
A: < 25%

Q: And the activation at 10 µM (Motilin; [1])?
A: -0.3%

Q: What about the inhibition at 10 µM (Motilin; [2]) of the same compound?
A: 50%

Q: What about the activation at 10 µM (CCK2; CCK2, 10 μM, read-out: AGONIST mean % increase in activity) of the same compound?
A: -0.2%

Q: What about the inhibition at 10 µM (CCK2; [2]) of the same compound?
A: 8.3%

Q: What about the activation at 10 µM (5-HT2B; [1]) of the same compound?
A: 3.7%

Q: What about the inhibition at 10 µM (5-HT2B; [2]) of the same compound?
A: 7.6%

Q: What about the activation at 10 µM (ETB; ETB, 10 μM, read-out: AGONIST mean % increase in activity) of the same compound?
A: -1.1%

Q: And the inhibition at 10 µM (ETB; [2])?
A: 2.9%

Q: And the activation at 10 µM (LPA1; [1])?
A: -1.3%

Q: And the inhibition at 10 µM (LPA1; [2])?
A: 57.4%

Q: What about the activation at 10 µM (C5aR; C5aR, 10 μM, read-out: AGONIST mean % increase in activity) of the same compound?
A: -1.2%

Q: What about the inhibition at 10 µM (C5aR; [2]) of the same compound?
A: 1.5%

Q: What about the activation at 10 µM (PRP; [1]) of the same compound?
A: -0.5%

Q: What about the inhibition at 10 µM (PRP; [2]) of the same compound?
A: 23.2%

Q: What about the “impact on the MAPK pathway (p42/p44 phosphorylation)” value (p42/p44 (MAPK pathway)) of the same compound?
A: no impact on the MAPK pathway

Q: What about the activation at 10 µM (VPAC2; VPAC2, 10 μM, read-out: AGONIST mean % increase in activity) of the same compound?
A: 0%

Q: What about the inhibition at 10 µM (VPAC2; [2]) of the same compound?
A: 6.2%

Q: What about the inhibition at 10 µM (p38α; 10 μM) of the same compound?
A: 84%

Q: What about the IC50 (p38α; 10-point titration curve) of the same compound?
A: > 10 µM

Q: What about the IC50 (AKT3) of the same compound?
A: > 0.5 µM

Q: What about the EC50 (AKT3; read-out: EC50 value for the AKT3 isoform) of the same compound?
A: > 0.5 µM

Q: What about the activation at 10 µM (BLT1; BLT1, 10 μM, read-out: AGONIST mean % increase in activity) of the same compound?
A: -0.2%

Q: And the inhibition at 10 µM (BLT1; [2])?
A: 5.6%

Q: What about the inhibition at 10 µM (PDK1; 10 μM) of the same compound?
A: 77%

Q: And the IC50 (PDK1; 10-point titration curve)?
A: > 10 µM

Q: And the inhibition at 10 µM (KCNQ1)?
A: < 25%

Q: And the activation at 10 µM (GnRH; GnRH, 10 μM, read-out: AGONIST mean % increase in activity)?
A: -0.6%

Q: What about the inhibition at 10 µM (GnRH; [2]) of the same compound?
A: 4%
